Measurements taken from ChEMBL document CHEMBL1201862, “PubChem BioAssay data set” (2004).
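Growth conditions: 96-well plates. Treatment: test compound, 48 hours, 5 concentrations. Analysis: linear interpolation between bracketing concentrations; unreached endpoints set to highest concentration. Abbreviation: GI50, concentration required for 50% inhibition of growth.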 Calls of active or inactive are those of the source. Rule as the data show it: active = GI50 up to about 1.1 µM and inactive = higher.

How the values were obtained:
Assay in all cases: DTP human tumour cell line panel, 48 h
SNB-78 = tested on: SNB-78
KM-20L2 = tested on: KM-20L2
DMS-114 = tested on: DMS-114
RXF 631 = tested on: RXF 631
M19-MEL = tested on: M19-MEL
HOP-18 = tested on: HOP-18
LXFL 529 = tested on: LXFL 529
DMS-273 = tested on: DMS-273
XF498 = tested on: XF498

## CN(O)C(=S)c1ccccc1
SNB-78
  GI50: 6.43 µM (inactive)
KM-20L2
  GI50: 3.24 µM (inactive)
DMS-114
  GI50: 1.18 µM (inactive)
RXF 631
  GI50: 1.48 µM (inactive)
M19-MEL
  GI50: 1.19 µM (inactive)
HOP-18
  GI50: > 100 µM (inactive)
LXFL 529
  GI50: 0.379 µM (active)
DMS-273
  GI50: 0.893 µM (active)

## O=CN/C=C/c1ccccc1
SNB-78
  GI50: > 100 µM (inactive)
KM-20L2
  GI50: > 100 µM (inactive)
RXF 631
  GI50: > 100 µM (inactive)
M19-MEL
  GI50: > 100 µM (inactive)
HOP-18
  GI50: > 100 µM (inactive)
LXFL 529
  GI50: > 100 µM (inactive)
DMS-273
  GI50: > 100 µM (inactive)

## COc1cccc2c1C1(O)C2CCCC12OCCCO2 (stereo unspecified)
SNB-78
  GI50: > 100 µM (inactive)
KM-20L2
  GI50: > 100 µM (inactive)
DMS-114
  GI50: > 100 µM (inactive)
M19-MEL
  GI50: > 100 µM (inactive)
HOP-18
  GI50: > 100 µM (inactive)
LXFL 529
  GI50: > 100 µM (inactive)
DMS-273
  GI50: > 100 µM (inactive)

## Cc1nc(-n2nc(-c3ccccc3)cc2-c2ccccc2)sc1C(/C=C/c1ccc([N+](=O)[O-])cc1)=N/NC(N)=S
SNB-78
  GI50: 18.7 µM (inactive)
KM-20L2
  GI50: 40.5 µM (inactive)
DMS-114
  GI50: 16.9 µM (inactive)
M19-MEL
  GI50: 42 µM (inactive)
LXFL 529
  GI50: 24.1 µM (inactive)

## COC(=O)C1Cc2c(n(C)c3ccccc23)C(CCC(=O)O)N1Cc1ccccc1 (stereo unspecified)
XF498
  GI50: 28.1 µM (inactive)
SNB-78
  GI50: 32.8 µM (inactive)
KM-20L2
  GI50: 34.9 µM (inactive)
DMS-114
  GI50: 26.7 µM (inactive)
RXF 631
  GI50: 36.9 µM (inactive)
M19-MEL
  GI50: 32.1 µM (inactive)
LXFL 529
  GI50: 37 µM (inactive)
DMS-273
  GI50: 31.6 µM (inactive)

## O=[N+]([O-])C=C1c2ccccc2-c2ccccc21
SNB-78
  GI50: 17.4 µM (inactive)
KM-20L2
  GI50: 19.1 µM (inactive)
LXFL 529
  GI50: 14.9 µM (inactive)

## COc1ccc(C(O)C(c2ccc(OCc3ccccc3)cc2)c2ccc(OCc3ccccc3)cc2)cc1 (stereo unspecified)
XF498
  GI50: > 100 µM (inactive)
SNB-78
  GI50: > 100 µM (inactive)
KM-20L2
  GI50: > 100 µM (inactive)
DMS-114
  GI50: > 100 µM (inactive)
M19-MEL
  GI50: > 100 µM (inactive)
LXFL 529
  GI50: > 100 µM (inactive)
DMS-273
  GI50: > 100 µM (inactive)

## CCC(C)CN1C(=O)NC(C)(Cc2ccccc2)C1=O (stereo unspecified)
XF498
  GI50: > 100 µM (inactive)
SNB-78
  GI50: > 100 µM (inactive)
KM-20L2
  GI50: > 100 µM (inactive)
DMS-114
  GI50: > 100 µM (inactive)
M19-MEL
  GI50: > 100 µM (inactive)
HOP-18
  GI50: > 100 µM (inactive)
LXFL 529
  GI50: > 100 µM (inactive)
DMS-273
  GI50: > 100 µM (inactive)

## Oc1ncnc2c1nnn2CCCn1nnc2c(O)ncnc21
XF498
  GI50: > 100 µM (inactive)
SNB-78
  GI50: > 100 µM (inactive)
KM-20L2
  GI50: > 100 µM (inactive)
DMS-114
  GI50: > 100 µM (inactive)
M19-MEL
  GI50: > 100 µM (inactive)
HOP-18
  GI50: > 100 µM (inactive)
LXFL 529
  GI50: > 100 µM (inactive)
DMS-273
  GI50: > 100 µM (inactive)

## CC1=NN(C(=O)c2ccc([N+](=O)[O-])cc2)C(=O)C1/N=N/c1ccccc1C(=O)O (stereo unspecified)
SNB-78
  GI50: > 100 µM (inactive)
DMS-114
  GI50: > 100 µM (inactive)
M19-MEL
  GI50: > 100 µM (inactive)
LXFL 529
  GI50: > 100 µM (inactive)
DMS-273
  GI50: > 100 µM (inactive)

## O=C(CCCCCCCCCCc1ccccc1)C1=C(O)CCCC1=O
XF498
  GI50: 42.5 µM (inactive)
SNB-78
  GI50: 52.4 µM (inactive)
KM-20L2
  GI50: 32.4 µM (inactive)
DMS-114
  GI50: 18.6 µM (inactive)
M19-MEL
  GI50: 32.7 µM (inactive)
HOP-18
  GI50: 38.6 µM (inactive)
LXFL 529
  GI50: 32.2 µM (inactive)
DMS-273
  GI50: 20.5 µM (inactive)

## O=C(O/N=C1/CCC/C1=C\c1ccccc1)c1ccc(Cl)cc1
XF498
  GI50: 61.5 µM (inactive)
SNB-78
  GI50: 32.8 µM (inactive)
KM-20L2
  GI50: > 100 µM (inactive)
M19-MEL
  GI50: > 100 µM (inactive)
HOP-18
  GI50: > 100 µM (inactive)
LXFL 529
  GI50: 47.4 µM (inactive)
DMS-273
  GI50: > 76.9 µM (inactive)

## C/C=C1/CCC2c3[nH]c4ccccc4c3CCN2C1 (stereo unspecified)
XF498
  GI50: 55.6 µM (inactive)
SNB-78
  GI50: > 100 µM (inactive)
KM-20L2
  GI50: 97.1 µM (inactive)
DMS-114
  GI50: 93.8 µM (inactive)
M19-MEL
  GI50: 86.3 µM (inactive)
LXFL 529
  GI50: > 100 µM (inactive)
DMS-273
  GI50: > 100 µM (inactive)

## CN1c2ccccc2NC(CC(=O)O)C2CC=CN21 (stereo unspecified)
XF498
  GI50: > 100 µM (inactive)
KM-20L2
  GI50: > 100 µM (inactive)
DMS-114
  GI50: > 100 µM (inactive)
RXF 631
  GI50: > 100 µM (inactive)
M19-MEL
  GI50: > 100 µM (inactive)
HOP-18
  GI50: 0.117 µM (active)
LXFL 529
  GI50: > 100 µM (inactive)
DMS-273
  GI50: > 100 µM (inactive)

## Cc1cc(-c2ccccc2)nc(Nc2cc3ccccc3[nH]2)n1
XF498
  GI50: > 100 µM (inactive)
SNB-78
  GI50: > 100 µM (inactive)
KM-20L2
  GI50: > 100 µM (inactive)
DMS-114
  GI50: > 100 µM (inactive)
M19-MEL
  GI50: > 100 µM (inactive)
LXFL 529
  GI50: > 100 µM (inactive)

## O=C(CC1(O)C(=O)Nc2ccccc21)c1ccc(O)cc1 (stereo unspecified)
SNB-78
  GI50: > 100 µM (inactive)
KM-20L2
  GI50: > 100 µM (inactive)
DMS-114
  GI50: > 100 µM (inactive)
RXF 631
  GI50: > 100 µM (inactive)
M19-MEL
  GI50: 70.1 µM (inactive)
HOP-18
  GI50: > 100 µM (inactive)
LXFL 529
  GI50: > 100 µM (inactive)
DMS-273
  GI50: > 100 µM (inactive)

## O=C(CC(=O)N1N=C(c2ccccc2)C(/N=N/c2ccc(C(=O)O)cc2)C1=O)Nc1ccc(F)cc1 (stereo unspecified)
XF498
  GI50: 20.4 µM (inactive)
SNB-78
  GI50: 42.8 µM (inactive)
KM-20L2
  GI50: 46.5 µM (inactive)
DMS-114
  GI50: 34.5 µM (inactive)
RXF 631
  GI50: 36.4 µM (inactive)
M19-MEL
  GI50: 74 µM (inactive)
LXFL 529
  GI50: 23.5 µM (inactive)
DMS-273
  GI50: 27.2 µM (inactive)

## CN(/N=C\c1ccnc2ccccc12)c1ccc([N+](=O)[O-])cc1
XF498
  GI50: > 100 µM (inactive)
SNB-78
  GI50: > 100 µM (inactive)
KM-20L2
  GI50: > 100 µM (inactive)
RXF 631
  GI50: > 100 µM (inactive)
M19-MEL
  GI50: 65.3 µM (inactive)
LXFL 529
  GI50: 54.8 µM (inactive)
DMS-273
  GI50: 42.5 µM (inactive)

## O=C1c2ccccc2C(=O)c2c1ccc1c3ccccc3n(-c3ccccc3)c21
SNB-78
  GI50: 21.1 µM (inactive)
KM-20L2
  GI50: 21.5 µM (inactive)
RXF 631
  GI50: 7.94 µM (inactive)
M19-MEL
  GI50: 18.8 µM (inactive)
HOP-18
  GI50: 14.5 µM (inactive)
LXFL 529
  GI50: 16.8 µM (inactive)
DMS-273
  GI50: 18.6 µM (inactive)

## O=[N+]([O-])c1nccn1COCCO
XF498
  GI50: > 100 µM (inactive)
SNB-78
  GI50: > 100 µM (inactive)
KM-20L2
  GI50: > 100 µM (inactive)
DMS-114
  GI50: > 100 µM (inactive)
RXF 631
  GI50: > 100 µM (inactive)
HOP-18
  GI50: 28.1 µM (inactive)
LXFL 529
  GI50: > 100 µM (inactive)
DMS-273
  GI50: > 100 µM (inactive)

## CCOC(=O)C(C)N1C(=O)c2ccccc2S1(=O)=O (stereo unspecified)
XF498
  GI50: > 100 µM (inactive)
DMS-114
  GI50: > 100 µM (inactive)
M19-MEL
  GI50: > 100 µM (inactive)
HOP-18
  GI50: > 100 µM (inactive)
DMS-273
  GI50: > 100 µM (inactive)

## Cc1cccc(C(C)(C)C)c1NC(=O)CC1C(=O)Nc2ccccc2[S+]1[O-] (stereo unspecified)
XF498
  GI50: 68.9 µM (inactive)
SNB-78
  GI50: 54.6 µM (inactive)
KM-20L2
  GI50: 57.5 µM (inactive)
RXF 631
  GI50: 70.3 µM (inactive)
LXFL 529
  GI50: 37.8 µM (inactive)
DMS-273
  GI50: 38.1 µM (inactive)

## [N-]=[N+]=Nc1ccccc1-[n+]1noc([O-])c1Br
KM-20L2
  GI50: > 100 µM (inactive)
DMS-114
  GI50: > 100 µM (inactive)
M19-MEL
  GI50: > 100 µM (inactive)
HOP-18
  GI50: > 100 µM (inactive)
LXFL 529
  GI50: > 100 µM (inactive)

## CCCCSC(=CC(=O)c1cccc(C(=O)C=C(SCCCC)SCCCC)n1)SCCCC
XF498
  GI50: > 100 µM (inactive)
SNB-78
  GI50: > 100 µM (inactive)
KM-20L2
  GI50: > 100 µM (inactive)
DMS-114
  GI50: > 100 µM (inactive)
M19-MEL
  GI50: > 100 µM (inactive)
HOP-18
  GI50: > 100 µM (inactive)
LXFL 529
  GI50: > 100 µM (inactive)
DMS-273
  GI50: > 100 µM (inactive)

## COC(=O)c1c(C(=O)OC)c(-c2ccccc2)n(-c2ccccc2)c(=O)c1-c1ccccc1
XF498
  GI50: 23.1 µM (inactive)
SNB-78
  GI50: 54.7 µM (inactive)
KM-20L2
  GI50: > 100 µM (inactive)
DMS-114
  GI50: 74.1 µM (inactive)
M19-MEL
  GI50: 92.3 µM (inactive)
LXFL 529
  GI50: > 100 µM (inactive)
DMS-273
  GI50: 87.7 µM (inactive)
